Measured values: paper PMC7222207, “Characterization of a CholesteroNitrone (ISQ-201), a Novel Drug Candidate for the Treatment of Ischemic Stroke” (Antioxidants, 2020)

How the values were obtained:
[1] = tested on: transient forebrain ischemia, cortex and hippocampal CA1; test: Global cerebral ischemia (4VO), dose-response curve of neuroprotection; format: in vivo, male Wistar rats; conditions: for EC50 of neuroprotection from dose-response curve: 5 days of reperfusion
Procedure: (§1) Transient forebrain ischemia was induced in adult male Wistar rats (10–12 weeks, Charles River) by the standard four-vessel occlusion model (4VO) described previously. Briefly, both vertebral arteries were irreversibly occluded by electrocoagulation under anesthesia, with a mixture of atropine, ketamine, and diazepam (0.25, 62.5, and 5 mg/kg, respectively) delivered through intraperitoneal injection. After 24 h, ischemia was induced by carotid occlusion with atraumatic clips, for 15 min, and then the clips were removed from the carotid arteries to allow reperfusion. Body temperature was maintained at 37 °C during the surgical procedure. The animals were studied after 5 days of reperfusion (R5d) after which they were sacrificed. Sham control animals were prepared in the same way, without carotid occlusion. We performed a power analysis (http://www.biomath.info/power/ttest.htm) to determine the sample size. Significance level and statistical power were set at 0.05 and 0.8 (80%), respectively, which afforded a sample size of […] subjects per group. The treatments were administered with concealed allocation, and in randomized order, according to a computer-generated randomization program. […]
Figure 2 Dose-response curve of ISQ-201. Ischemic animals were treated with a vehicle or ISQ-201 (range 0.01–0.1 mg/kg) by an intravenous injection, at the onset of reperfusion after global cerebral ischemia, and ISQ-201 effect was evaluated by assessing the neuronal death at 5 days of reperfusion (R5d). […] Fluoro-Jade-positive dead neurons were visualized by fluorescence microscopy (in green) in the hippocampal CA1 (CA1) and cortical (C) regions (images), and counted, as described in Materials and Methods (bar graph). (b) Brain sections as in (a) were used for apoptosis detection by TUNEL assay after fixation, and were visualized by fluorescence microscopy (in green) in the CA1 and C regions (images). TUNEL-positive cells were counted in the CA1 and C regions, as described in the Materials and Methods (bar graph). […]

[2] = tested on: transient forebrain ischemia; test: Global cerebral ischemia (4VO), neurological deficit score (NDS); format: in vivo, male Wistar rats; conditions: evaluated at 5 days
Procedure: as §1, with “group.” for “group. The treatments were administered with concealed allocation, and in randomized order, according to a computer-generated randomization program.”
Neurological deficits in rats subjected to global cerebral ischemia were blindly evaluated after 5 days of reperfusion (R5d). […]
In order to quantify potential functional impairments, the general state of the animals was assessed. […]

[3] = tested on: transient middle cerebral artery occlusion; test: Transient focal cerebral ischemia (tMCAO), infarct size by TTC stain; format: in vivo, male C57BL/6 mice; conditions: mice, 48 h after tMCAO

For `CC(C)[C@H]1CC[C@H]2[C@@H]3CCC4=C/C(=[N+](\C)[O-])CC[C@]4(C)[C@H]3CC[C@]12C` [ISQ-201], the “EC50 of neuroprotection from dose-response curve” value ([1]; cortex, iv 0.01–0.1 mg/kg at reperfusion onset) was 0.015 mg/kg, the “EC50 of neuroprotection from dose-response curve” value ([1]; hippocampal CA1, iv 0.01–0.1 mg/kg at reperfusion onset) was 0.025 mg/kg and the “most effective dose in decreasing neuronal death and apoptosis” value ([1]; iv, doses 0.01–0.1 mg/kg, after 5 days of reperfusion) was 0.05 mg/kg. The “neurological deficit score (NDS) vs vehicle” value ([2]; 0.05 mg/kg iv given after 48 h of reperfusion) was “could not improve”, the “neurological deficit score (NDS) vs vehicle” value ([2]; 0.05 mg/kg iv given between 0 and 6 h of post-reperfusion) was “improvement” and the “infarct area in the brain vs vehicle” value ([3]; 0.05 mg/kg ip at onset of reperfusion) was “did not change”. The “reduction in lesion size with respect to vehicle-treated group” value ([3]; 0.1 mg/kg ip at onset of reperfusion) was 21%.
